Marks after values point to notes of the source that are not given here.
Experiments:
Plasmopara viticola = assay: Test D: grape downy mildew, spray after inoculation of grape seedlings; assay type: in vivo
Source text: Upon removal, disease ratings were made. […] A dash (-) indicates no test results.

Phytophthora infestans = assay: whole plant or invertebrate; assay type: in vivo
Septoria tritici = assay: Test J: wheat leaf blotch, preventive spray on wheat seedlings; assay type: in vivo
Source text: A dash (-) indicates no test results.

[1] = test system: Puccinia recondita f. sp. tritici; assay: Test K: wheat leaf rust, preventive spray on wheat seedlings
Botrytis cinerea = assay: Test E: tomato botrytis, preventive spray on tomato seedlings
Septoria nodorum = assay: Test H: wheat glum blotch, preventive spray on wheat seedlings
Protocol: (the causal agent of wheat glum blotch) and incubated in a saturated atmosphere at 20° C. for 48 h, and then moved to a growth chamber at 22° C. for 5 days, after which disease ratings were made.

[2] = test system: Erysiphe graminis f. sp. tritici; assay: Test L: wheat powdery mildew, preventive spray on wheat seedlings
Sclerotinia sclerotiorum = assay: Test C: cucumber white mold, preventive spray on cucumber seedlings
Pythium aphanidermatum = assay: Test A: bluegrass pythium blight, preventive spray on bluegrass seedlings
Rhizoctonia oryzae = assay: Test G: turf brown patch, preventive spray on creeping bent grass seedlings
Protocol: (the causal agent of turf brown patch) and incubated in a saturated atmosphere at 27° C. for 24 h, and then moved to a growth chamber at 27° C. for 5 days, after which disease ratings were made.

[3] = test system: Colletotrichum orbiculare; assay: Test B: cucumber Colletotrichum anthracnose, preventive spray on cucumber seedlings

SMILES | Test D disease control rating (Plasmopara viticola; 200 ppm) [%] | Test F disease control rating (Phytophthora infestans; 200 ppm) [%] | Test J disease control rating (Septoria tritici; 200 ppm) [%] | Test K disease control rating ([1]; 200 ppm) [%] | Test E disease control rating (Botrytis cinerea; 200 ppm) [%] | Test H disease control rating (Septoria nodorum; 200 ppm) [%] | Test L disease control rating ([2]; 200 ppm) [%] | Test C disease control rating (Sclerotinia sclerotiorum; 200 ppm) [%] | Test A disease control rating (Pythium aphanidermatum; 200 ppm) [%] | Test G disease control rating (Rhizoctonia oryzae; 200 ppm) [%] | Test B disease control rating ([3]; 200 ppm) [%] | further results
CCC(C)n1c(-c2c(F)cccc2F)c(Cl)nc(-n2cncn2)c1=O (stereo not drawn) [compound 32] | 15 | 0 | 32 | 100 | 100 | 100 | 0 | 95 | 0 | 92 | 0 | 
CC(C)n1c(-c2c(F)cccc2F)c(Cl)nc(-n2cncn2)c1=O [compound 33] | 34 | 0 | 100 | 100 | 100 | 100 | 0 | 16 | 0 | 100 | 0 | 
CCCn1c(-c2c(F)cccc2F)c(Cl)nc(-n2cncn2)c1=O [compound 34] | 10 | 26 | 97 | 99 | 100 | 100 | 89 | 16 | 0 | 100 | 0 | 
CC(C)CCn1c(-c2c(F)cccc2F)c(Cl)nc(-n2cccn2)c1=O [compound 35] | 5 | 0 | 100 | 88 | 100 | 100 | 97 | 0 | 0 | 90 | 0 | 
C=CCn1c(-c2c(F)cccc2F)c(Cl)nc(-n2cccn2)c1=O [compound 58] | 47 | 0 | 98 | 100 | 100 | 100 | 99 | 0 | 0 | 92 | 99 | 
CC(C)Cn1c(-c2c(F)cccc2F)c(Cl)nc(-c2ccncc2)c1=O [compound 84] |  |  |  |  |  |  |  |  |  |  |  | Test D disease control rating (Plasmopara viticola; 40 ppm (*)): 5* %; Test F disease control rating (Phytophthora infestans; 40 ppm (*)): 0* %; Test J disease control rating (Septoria tritici; 40 ppm (*)): 20* %; Test K disease control rating ([1]; 40 ppm (*)): 0* %; Test E disease control rating (Botrytis cinerea; 40 ppm (*)): 0* %; Test H disease control rating (Septoria nodorum; 40 ppm (*)): 0* %; Test L disease control rating ([2]; 40 ppm (*)): 0* %; Test C disease control rating (Sclerotinia sclerotiorum; 40 ppm (*)): 0* %; Test A disease control rating (Pythium aphanidermatum; 40 ppm (*)): 0* %; Test G disease control rating (Rhizoctonia oryzae; 40 ppm (*)): 0* %; Test B disease control rating ([3]; 40 ppm (*)): 0* %
COCCn1c(-c2c(F)cccc2F)c(Cl)nc(-n2cccn2)c1=O [compound 95] | 92 | 0 | 95 | 94 | 99 | 100 | 0 | 0 | 0 | 68 | 0 | 
CC(C)Cn1c(-c2c(F)cccc2F)c(Cl)nc(-c2nccs2)c1=O [compound 101] | 15 | 0 |  |  |  |  |  | 0 | 0 |  |  | Test J disease control rating (Septoria tritici; 40 ppm (*)): 53* %; Test K disease control rating ([1]; 40 ppm (*)): 0* %; Test E disease control rating (Botrytis cinerea; 40 ppm (*)): 0* %; Test H disease control rating (Septoria nodorum; 40 ppm (*)): 0* %; Test L disease control rating ([2]; 40 ppm (*)): 0* %; Test G disease control rating (Rhizoctonia oryzae; 40 ppm (*)): 0* %; Test B disease control rating ([3]; 40 ppm (*)): 0* %
CC(C)Cn1c(-c2cc(F)cc(F)c2F)c(Cl)nc(-n2cncn2)c1=O [compound 138] |  |  |  |  |  |  |  |  |  |  |  | Test D disease control rating (Plasmopara viticola; 100 ppm (#)): 12# %; Test F disease control rating (Phytophthora infestans; 100 ppm (#)): 0# %; Test J disease control rating (Septoria tritici; 100 ppm (#)): 46# %; Test K disease control rating ([1]; 100 ppm (#)): 0# %; Test E disease control rating (Botrytis cinerea; 100 ppm (#)): 83# %; Test H disease control rating (Septoria nodorum; 100 ppm (#)): 0# %; Test L disease control rating ([2]; 100 ppm (#)): 0# %; Test C disease control rating (Sclerotinia sclerotiorum; 100 ppm (#)): 24# %; Test A disease control rating (Pythium aphanidermatum; 100 ppm (#)): 0# %; Test G disease control rating (Rhizoctonia oryzae; 100 ppm (#)): 55# %; Test B disease control rating ([3]; 100 ppm (#)): 0# %
CC(C)Cn1c(-c2ccccc2C(F)(F)F)c(Cl)nc(-n2cncn2)c1=O [compound 140] | 12 | 0 | 41 | 0 | 99 | 0 | 0 | 83 | 0 | 34 | 0 | 
CC(C)Cn1c(-c2ccccc2C(F)(F)F)c(Cl)nc(-n2cccn2)c1=O [compound 141] | 12 | 0 | 99 | 60 | 92 | 73 | 79 | 63 | 0 | 96 | 96 | 
CC(C)Cn1c(-c2ccc(F)cc2)c(Cl)nc(-n2cncn2)c1=O [compound 142] | 4 | 0 | 100 | 27 | 100 | 100 | 81 | 0 | 64 | 0 | 16 | 
CC(C)Cn1c(-c2ccc(F)cc2)c(Cl)nc(-n2cccn2)c1=O [compound 143] | 12 | 0 | 100 | 68 | 99 | 0 | 0 | 0 | 0 | 47 | 0 | 
CC(C)Cn1c(-c2ccc(C#N)cc2)c(Cl)nc(-n2cncn2)c1=O [compound 144] | 12 | 0 | 89 | 0 | 0 | 0 | 0 | 0 | 0 | 0 | 0 | 
CC(C)Cn1c(-c2ccc(C#N)cc2)c(Cl)nc(-n2cccn2)c1=O [compound 145] | 20 | 0 | 100 | 68 | 99 | 0 | 0 | 49 | 0 | 40 | 0 | 
O=c1c(-n2cncn2)nc(Cl)c(-c2c(F)cccc2F)n1-c1ccccc1 [compound 162] | 8 | 0 | 100 | 27 | 85 | 0 | 0 | 0 | 0 | 47 | 9 | 
CCC(C)Cn1c(-c2ccc(F)cc2Cl)c(Cl)nc(-n2cccn2)c1=O (stereo not drawn) [compound 164] | 44 | 0 | 100 | 100 | 100 | 100 | 100 | 91 | 0 | 74 | 100 | 
CC(C)Cn1c(-c2ccccc2F)c(Cl)nc(-n2cccn2)c1=O [compound 174] |  |  |  |  |  |  |  |  |  |  |  | Test D disease control rating (Plasmopara viticola; 40 ppm (*)): 15* %; Test F disease control rating (Phytophthora infestans; 40 ppm (*)): 0* %; Test J disease control rating (Septoria tritici; 40 ppm (*)): 100* %; Test K disease control rating ([1]; 40 ppm (*)): 99* %; Test E disease control rating (Botrytis cinerea; 40 ppm (*)): 100* %; Test H disease control rating (Septoria nodorum; 40 ppm (*)): 99* %; Test L disease control rating ([2]; 40 ppm (*)): 98* %; Test C disease control rating (Sclerotinia sclerotiorum; 40 ppm (*)): 0* %; Test A disease control rating (Pythium aphanidermatum; 40 ppm (*)): 0* %; Test G disease control rating (Rhizoctonia oryzae; 40 ppm (*)): 62* %; Test B disease control rating ([3]; 40 ppm (*)): 0* %

From US20080194585A1, “Fungicidal Pyrazine Derivatives” (priority 2005, published 2008)
